Source: patent US20080057086A1, “COLON-TARGETED ORAL FORMULATIONS OF CYTIDINE ANALOGS” (PHARMION CORPORATION, priority 2006, published 2008)
Like-named read-outs stand apart in the source and are kept apart here.

Legend:
[1] = Excipient compatibility studies; type: physicochemical
[2] = Caco 2 monolayer permeability of 5-azacytidine with and without excipients; type: in vitro ADME; settings: human
Description: The Caco-2 cells are an intestinal epithelial cell line (human colon adenocarcinoma established from the primary colon tumor (adenocarcinoma)) Monolayers of Caco-2 cells are used to classify the intestinal absorption potential of a drug candidate molecule. The assay was carried out in accordance with P. Artursson and J. Karlsson, “Correlation between Oral Drug Absorption in Humans and Apparent Drug Permeability Coefficients in Human Intestinal Epithelial (Caco-2) Cells”, Biochem. Biophys. Res. Commun. 175, 880 (1991).
Briefly, Caco-2 cells were grown to confluence on collagen-coated, microporous polycarbonate in 12-well plates. For the assay buffer, Dulbecco's Phosphate Buffered Saline at pH 7.4 was used. […] The test compound was then dosed on either the apical or basolateral side of the Caco-2 monolayer, and flux across the monolayer was determined both one and two hours after dosing. Results were compared to control high permeability compounds metoprolol and antipyrine and low permeability compounds atenolol and ranitidine, and were expressed as Papp (apparent permeability) compared to reference compound standards. Integrity of the monolayers was determine both before and after testing by measuring the […] electrical resistance (TEER) value. Apparent permeability is calculated as (dCr/dt)×Vr/(A×C0) where dCr/dt is the slope of the cumulative concentration in the receiver compartment versus time in micromolar per second, Vr is the volume of the receiver compartment in cubic centimeters, A is the area of the cell monolayer, and C0 is the measured initial donor concentration in micromolar.

total hemoglobin = settings: β^0-thalassemic patient, cited from earlier work

Excipient compatibility ([1]; each excipient of the Example 3 formulation (Table 2)): compatible with each excipient
Excipient compatibility ([1]; each excipient of the Example 4 formulation (Table 3)): compatible with each excipient
Excipient compatibility ([1]; each excipient of the Example 6 formulation (Table 7)): compatible with each excipient
Excipient compatibility ([1]; each excipient of the Example 7 formulation (Table 8)): compatible with each excipient
Excipient compatibility ([1]; each excipient of the Example 8 formulation (Table 9)): compatible with each excipient
Excipient compatibility ([1]; each excipient of the Example 9 formulation (Table 10)): compatible with each excipient
Papp at 1000 micromolar ([2]; Caco-2, pH 7.4, with Carboxymethyl Cellulose 0.1%): 0.26 ± 0.09 ×10⁻⁶ cm/s
Papp at 1000 micromolar ([2]; Caco-2, pH 7.4, with Chitosan 0.1%): 0.15 ± 0.01 ×10⁻⁶ cm/s
Papp at 1000 micromolar ([2]; Caco-2, pH 7.4, with Labrafil 0.001%): 0.27 ± 0.02 ×10⁻⁶ cm/s
Papp at 1000 micromolar ([2]; Caco-2, pH 7.4, with Labrafil 0.01%): 0.23 ± 0.04 ×10⁻⁶ cm/s
Papp at 1000 micromolar ([2]; Caco-2, pH 7.4, with Labrafil 0.05%): 0.38 ± 0.13 ×10⁻⁶ cm/s
Papp at 1000 micromolar ([2]; Caco-2, pH 7.4, with Labrafil 0.1%): 0.34 ± 0.002 ×10⁻⁶ cm/s
Papp at 1000 micromolar ([2]; Caco-2, pH 7.4, with Poloxamer F127 0.1%): 0.13 ± 0.02 ×10⁻⁶ cm/s
Papp at 1000 micromolar ([2]; Caco-2, pH 7.4, with Sodium Laurate 0.001%): 0.19 ± 0.04 ×10⁻⁶ cm/s
Papp at 1000 micromolar ([2]; Caco-2, pH 7.4, with Sodium Laurate 0.01%): 0.19 ± 0.02 ×10⁻⁶ cm/s
Papp at 1000 micromolar ([2]; Caco-2, pH 7.4, with Sodium Laurate 0.05%): 0.17 ± 0.03 ×10⁻⁶ cm/s
Papp at 1000 micromolar ([2]; Caco-2, pH 7.4, with Solutol 0.1%): 0.26 ± 0.04 ×10⁻⁶ cm/s
Papp at 1000 micromolar ([2]; Caco-2, pH 7.4, with TPGS 0.001%): 0.33 ± 0.08 ×10⁻⁶ cm/s
Papp at 1000 micromolar ([2]; Caco-2, pH 7.4, with TPGS 0.01%): 0.3 ± 0.05 ×10⁻⁶ cm/s
Papp at 1000 micromolar ([2]; Caco-2, pH 7.4, with TPGS 0.05%): 0.45 ± 0.18 ×10⁻⁶ cm/s
Papp at 1000 micromolar ([2]; Caco-2, pH 7.4, with TPGS 0.1%): 0.38 ± 0.09 ×10⁻⁶ cm/s
Papp A→B at 1000 micromolar ([2]; Caco-2, pH 7.4, read-out: Papp (apical to basolateral permeability)): 0.15 ± 0.02 ×10⁻⁶ cm/s
Compound: Nc1ncn([C@@H]2O[C@H](CO)[C@@H](O)[C@H]2O)c(=O)n1 [5-azacytidine, 4-amino-1-β-D-ribofuranosyl-1,3,5-triazin-2(1H)-one]
Papp at 1000 micromolar ([2]; Caco-2, pH 7.4, with Sodium Laurate 0.1%, high permeability due to toxic effects of sodium laurate on Caco 2 cells): 15.8 ± 1.77 ×10⁻⁶ cm/s
Hemoglobin levels (total hemoglobin; 2 mg/d tid PO with co-administration of THU): did not result in increased hemoglobin levels
Hemoglobin levels (total hemoglobin; 2 mg/kg/d IV): measurable increase
